Experimental data from patent publication US7368428B2, “Compositions and methods for restoring sensitivity of tumor cells to antitumor therapy and inducing apoptosis” (A&G Pharmaceutical, Inc., priority 2003, dated 2008).
Where a name gives a salt, the structure may show the parent alone.

Columns and labels:
[1] = system: MCF-7 breast carcinoma cells; assay: PARP cleavage Western blot (apoptosis) in MCF-7 cells; type: cell-based; conditions: FIG. 5; for 85 kDa PARP cleavage product: agent alone
Excerpt: Tamoxifen-induced apoptosis is blocked in tumor cells overexpressing GP88. FIG. 5 is a western blot measuring the level of the PARP cleavage product (85 kDa band) in MCF-7 breast carcinoma cells treated with tamoxifen, tamoxifen+GP88, tamoxifen+estradiol, GP88, and a control. […] Tamoxifen-induced apoptosis was blocked by treatment with estradiol, a compound known to block tamoxifen-induced apoptosis, as shown by the decrease in the 85 kDa band in the lane labeled “Tamoxifen+estradiol.” Tamoxifen-induced apoptosis was blocked by treatment with GP88 to the same extent as treatment by estradiol.
(§1) The present invention also provides methods of inducing apoptosis comprising administering a GP88 antagonist to a tumor cell. Apoptosis can be induced in all tumor cell types including, but not limited to, neuroblastoma, glioblastoma, astrocytoma, sarcomas, and cancers of the prostate, blood, cerebrospinal fluid, liver, kidney, breast, head and neck, pharynx, thyroid, pancreas, stomach, colon, colorectal, uterus, cervix, bone, bone marrow, testes, brain, neural tissue, ovary, skin, and lung. Apoptosis can be detected in tumor cells by a variety of techniques including, but not limited to for example, detection of Bcl-2 levels or detection of the PARP cleavage product, DNA ladder, and production of apoptotic cells. PARP or poly(ADP-ribose) polymerase is a nuclear binding protein that detects DNA strand breaks and participates in DNA repair. Cleavage of PARP is a hallmark of caspases-dependent apoptosis. When apoptosis takes place, the 116 kDa intact PARP is cleaved in two fragments, 85 kDa and 25 kDa. Detection of intact and cleaved forms of PARP by Western Blot analysis with anti-PARP antibody has been established as an apoptosis assay. Duriez et al., Biochem Cell Biol. 75: 337-49, 1997. […]
(§2) MCF-7 cells or O4 cells were seeded at a density of 7×10^5 cells in 60-mm dish in DMEM/F12 supplemented with 5% FBS. […] Intact and cleaved forms of PARP were detected using a mouse monoclonal anti-PARP antibody from Oncogene Research (San Diego, Calif.). α-Actin was used for normalizing the loading.

[2] = system: tamoxifen resistant MCF-7 cells; assay: PARP cleavage Western blot (apoptosis) in tamoxifen resistant MCF-7 cells; type: cell-based; conditions: agent alone, FIG. 8
Excerpt: as §1, with “kDa.” for “kDa. Detection of intact and cleaved forms of PARP by Western Blot analysis with anti-PARP antibody has been established as an apoptosis assay. Duriez et al., Biochem Cell Biol. 75: 337-49, 1997.”
as §2

[3] = system: Bcl-2; assay: Bcl-2 mRNA transcript RT-PCR in MCF-7 cells; type: cell-based; conditions: all concentrations tested (0 to 2 μm tamoxifen), FIG. 6
Excerpt: (§3) Apoptosis is controlled by the ratio of apoptotic to anti-apoptotic factors, particularly Bcl-2, bcl-xl and bax. […] Zhang et al., Clin. Cancer Res. 5: 2971-7, 1999; Cameron et al., Eur. J. Cancer 36: 845-51, 2000. Alteration of Bcl-2 expression levels changes the bax:Bcl-2 ratio and alters susceptibility to apoptosis. O4 cells are MCF-7 cells transformed with a GP88 expression construct to overexpress GP88. Serrero et al., Proc. Natl. Acad. Sci. U.S.A. 97: 3993-8, 2000.
(§4) GP88 overexpression blocks down-regulation of Bcl-2 mRNA transcript in response to tamoxifen treatment. MCF-7 cells and MCF-7 cells overexpressing GP88 (O4 cells) were treated with 0 to 2 μm tamoxifen. FIG. 6. 5 μg of total RNA was reverse transcribed into single strand cDNA by Super Script II (BRL, Gaithersburg, Md.) using 20 ng random hexamer (Gibco) as primer. The reverse transcription reaction was carried out for 1 h at 42 C in […] Tris-HCl (pH8.3), 2.5 mM MgCl2, 50 mM KCl, DTT 0.01 M and dNTP (each 0.5 mM). A total of 30-35 PCR cycles depending on the gene amplified were performed, followed by electrophoresis on 1% agarose gel. The specific primer pairs used were as follows: for glyceraldehyde 3-phosphate dehydrogenase (GAPDH): forward primer 5′ […] 3′ (SEQ ID NO: 9), reverse primer, 5′ […] 3′ (SEQ ID NO: 10); for Bcl-2: forward primer 5′ […] 3′ (SEQ ID NO: 11), reverse primer 5′ […] […]

[4] = system: Bcl-2; assay: Bcl-2 mRNA transcript RT-PCR in O4 cells; type: cell-based; conditions: even at elevated doses, FIG. 6
Excerpt: as §3, §4

[5] = system: O4 cells (GP88 overexpressing cells); assay: tumor growth of O4 cells in ovariectomized nude mice; type: in vivo
Excerpt: Athymic ovariectomized female nude mice were implanted with an estradiol pellet one day before being injected (S.C) with either MCF-7 cells or O4 cells. After 10 days when the tumors were visible, the mice received either a placebo pellet or tamoxifen pellet. Tumor growth was monitored for 45 days. At the end of the experiments, mice were euthanized and the tumors were excised and evaluated. […] In contrast, tumor volume in mice with tumor induced by O4 cells and untreated with tamoxifen increased from 75 mm^3 to 150 mm^3 in 45 days. Tamoxifen treatment of tumors overexpressing GP88 increased tumor volume more than 4 times while tumor volume of untreated GP88 overexpressing tumors increased by 2 times.

[6] = system: cyclin D1; assay: cyclin D1 expression (FIG. 11 lanes); type: cell-based
Excerpt: Tumors progress through various stages of growth and maturation leading to increased mobility of the tumor through the body. Therefore, tumor cells can be targeted at several stages during the progression of tumor growth and maturation. For example, GP88 antagonists inhibit tumor cell growth and proliferation. For example, GP88 induces expression of cyclin D1, a cell cycle regulatory protein involved in the growth and proliferation of tumor cells.

CC/C(=C(\c1ccccc1)c1ccc(OCCN(C)C)cc1)c1ccccc1 [tamoxifen, tamoxifen citrate]
85 kDa PARP cleavage product [1]: significantly increased | cleavage of PARP [2]: does not cleave PARP | Bcl-2 transcript [3]: induced down-regulation | Bcl-2 transcript [4]: failed to down regulate | increase of tumor volume ([5]; O4 cell tumors (overexpressing GP88), tamoxifen treatment, 45 days): more than 4 times | tumor volume after 45 days ([5]; O4 cell tumors, ovariectomized nude mice with estradiol pellet, tamoxifen pellet, after 45 days, FIG. 9): about 225 mm^3 | tumor volume at start ([5]; O4 cell tumors, ovariectomized nude mice with estradiol pellet, tamoxifen pellet, start value, FIG. 9): 50 mm^3

GP88: 88 kDa glycoprotein growth factor, epithelin/granulin precursor
expression of cyclin D1 [6]: stimulates | tamoxifen-induced apoptosis (85 kDa PARP cleavage product) ([1]; agent added together with tamoxifen): blocked | 85 kDa PARP cleavage product [1]: not in the presence of GP88
